Source: US20250186391A1, “ORAL COMPLEMENT FACTOR D INHIBITORS” (BioCryst Pharmaceuticals, Inc., priority 2019, published 2025)

target: Factor D (Homo sapiens (Human), UniProt P00746); assay: Factor D esterolytic assay; type: biochemical; details: Z-Lys-SBzl substrate, 100 mM HEPES, 500 mM NaCl, pH 7.5, 10% DMSO; tested a minimum of three times; read-out: Measured Ki (IC50) Value for Compounds: IC50
Summary of the method: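 Chromogenic thioesterase read-out: Z-Lys-SBzl (1.29 mM) hydrolysis by human Factor D, thiol detected with DTNB at 405 nm (690 nm background subtracted) for 600 s. Run in 100 mM HEPES, 500 mM NaCl, pH 7.5, 10% DMSO, substrate added immediately or after room-temperature preincubation. IC50 from percent inhibition versus enzyme alone, n≥3.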

Factor D, sequence (P00746 26-253): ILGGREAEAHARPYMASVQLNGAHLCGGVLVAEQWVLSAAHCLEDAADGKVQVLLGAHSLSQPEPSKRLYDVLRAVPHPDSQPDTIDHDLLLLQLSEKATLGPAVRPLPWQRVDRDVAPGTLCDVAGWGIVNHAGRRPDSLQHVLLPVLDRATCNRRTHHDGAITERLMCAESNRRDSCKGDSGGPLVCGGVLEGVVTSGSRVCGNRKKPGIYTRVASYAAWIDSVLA

Structure (SMILES) | IC50
COc1ccc(CC(=O)O)c(OCc2c(C)oc3ccc(-c4cccc(CN)c4O)cc23)c1 [Compound 244d, 2-(2-((5-(3-(aminomethyl)-2-hydroxyphenyl)-2-methylbenzofuran-3-yl)methoxy)-4-methoxyphenyl)acetic acid] | < 1000 nM
NCc1cc(-c2cc3c(COc4ccccc4CC(=O)O)cccc3o2)ccn1 [Compound 290h, 2-(2-((2-(2-(aminomethyl)pyridin-4-yl)benzofuran-4-yl)methoxy)phenyl)acetic acid] | < 1000 nM
NCc1cccc(-c2cc(CN3CCC(F)(F)CC3)c3occ(COc4ccccc4CC(=O)O)c3c2)c1 [Compound 89e, 2-(2-((5-(3-(aminomethyl)phenyl)-7-((4,4-difluoropiperidin-1-yl)methyl)benzofuran-3-yl)methoxy)phenyl)acetic acid] | < 1000 nM
NCc1cccc(-c2ccc3c(c2)c(COc2ccccc2CC(=O)O)nn3C2CCC2)c1 [Compound 298d, 2-(2-((5-(3-(aminomethyl)phenyl)-1-cyclobutyl-1H-indazol-3-yl)methoxy)phenyl)acetic acid] | < 1000 nM
NCc1cccc(-c2cccc3cc(COc4ccccc4CC(=O)O)ccc23)c1 [Compound 41d, 2-(2-((5-(3-(aminomethyl)phenyl)naphthalen-2-yl)methoxy)phenyl)acetic acid] | > 10000 nM
CN(Cc1cc(-c2cccc(CN)c2)cc2c(COc3ccccc3CC(=O)O)coc12)C1CC1 [Compound 261e, 2-(2-((5-(3-(aminomethyl)phenyl)-7-((cyclopropyl(methyl)amino)methyl)benzofuran-3-yl)methoxy)phenyl)acetic acid] | < 1000 nM
NCc1cc(-c2cc(COc3ccccc3CC(=O)O)cc3cc(COc4ccccc4CC(=O)O)oc23)ccn1 [Compound 27e, 2,2′-((((7-(2-(aminomethyl)pyridin-4-yl)benzofuran-2,5-diyl)bis(methylene))bis(oxy))bis(2,1-phenylene))diacetic acid] | < 1000 nM
CC(C)n1nc(COc2cccc(CC(=O)O)c2)c2cc(-c3cccc(CN)c3)ccc21 [Compound 304c, 2-(3-((5-(3-(aminomethyl)phenyl)-1-isopropyl-1H-indazol-3-yl)methoxy)phenyl)acetic acid] | > 10000 nM
NCc1cccc(-c2cc(C(=O)NCC3CC3)cc3cc(COc4ccccc4CC(=O)O)oc23)c1 [Compound 32d, 2-(2-((7-(3-(aminomethyl)phenyl)-5-((cyclopropylmethyl)carbamoyl)benzofuran-2-yl)methoxy)phenyl)acetic acid] | < 1000 nM
NCc1cccc(-c2cc(OCCF)c3occ(COc4ccccc4CC(=O)O)c3c2)c1 [Compound 248f, 2-(2-((5-(3-(aminomethyl)phenyl)-7-(2-fluoroethoxy)benzofuran-3-yl)methoxy)phenyl)acetic acid] | < 1000 nM
CC(C)n1nc(COc2ccccc2CCC(=O)O)c2cc(-c3cccc(CN)c3)ccc21 [Compound 308d, 3-(2-((5-(3-(aminomethyl)phenyl)-1-isopropyl-1H-indazol-3-yl)methoxy)phenyl)propanoic acid] | 1000 to 10000 nM
CC(C)n1nc(COc2ccccc2CC(=O)O)c2cc(-c3cc(O)cc(CN)c3)ccc21 [Compound 243g, 2-(2-((5-(3-(aminomethyl)-5-hydroxyphenyl)-1-isopropyl-1H-indazol-3-yl)methoxy)phenyl)acetic acid] | < 1000 nM
COc1ccc(CC(=O)O)c(OCc2c(C)oc3ccc(-c4ccnc(CN)c4)cc23)c1 [Compound 203d, 2-(2-((5-(2-(aminomethyl)pyridin-4-yl)-2-methylbenzofuran-3-yl)methoxy)-4-methoxyphenyl)acetic acid] | < 1000 nM
NCc1cccc(-c2ccc3occ(COc4ccccc4C(=O)O)c3c2)c1 [Compound 1f, 2-((5-(3-(aminomethyl)phenyl)benzofuran-3-yl)methoxy)benzoic acid] | < 1000 nM
NCc1cc(-c2cc3c(COc4ccccc4CC(=O)O)coc3c3ccoc23)ccn1 [Compound 288d, 2-(2-((5-(2-(aminomethyl)pyridin-4-yl)benzo[1,2-b:3,4-b′]difuran-3-yl)methoxy)phenyl)acetic acid] | < 1000 nM
CC(C)(C)c1oc2ccc(-c3cccc(CN)c3)cc2c1COc1ccccc1CC(=O)O [Compound 171i, 2-(2-((5-(3-(aminomethyl)phenyl)-2-(tert-butyl)benzofuran-3-yl)methoxy)phenyl)acetic acid] | < 1000 nM
NCc1cccc(-c2ccc3oc(C(N)=O)c(COc4ccccc4CC(=O)O)c3c2)c1 [Compound 103c, 2-(2-((5-(3-(aminomethyl)phenyl)-2-carbamoylbenzofuran-3-yl)methoxy)phenyl)acetic acid] | < 1000 nM
Cc1cc2c(o1)c(-c1cccc(CN)c1)cc1c(COc3ccccc3CC(=O)O)coc12 [Compound 283g, 2-(2-((5-(3-(aminomethyl)phenyl)-7-methylbenzo[1,2-b:3,4-b′]difuran-3-yl)methoxy)phenyl)acetic acid] | < 1000 nM

Structure (SMILES) | IC50
NCc1cccc(-c2ccc3occ(COc4cc(F)ccc4CC(=O)O)c3c2)c1 [Compound 39f, 2-(2-((5-(3-(aminomethyl)phenyl)benzofuran-3-yl)methoxy)-4-fluorophenyl)acetic acid] | < 1000 nM
CC(C)(C)OC(=O)Nc1cccc(CC(=O)O)c1OCc1coc2ccc(-c3cccc(CN)c3)cc12 [Compound 91a, 2-(2-((5-(3-(aminomethyl)phenyl)benzofuran-3-yl)methoxy)-3-((tert-butoxycarbonyl)amino)phenyl)acetic acid] | < 1000 nM
C[C@@H](N)c1cccc(-c2cc(CC3CCOCC3)c3occ(COc4ccccc4CC(=O)O)c3c2)c1F [Compound 164e, (R)-2-(2-((5-(3-(1-aminoethyl)-2-fluorophenyl)-7-((tetrahydro-2H-pyran-4-yl)methyl)benzofuran-3-yl)methoxy)phenyl)acetic acid] | < 1000 nM
NCc1cccc(-c2ccc3sc(C(=O)O)c(COc4ccccc4CC(=O)O)c3c2)c1 [Compound 56d, 5-(3-(aminomethyl)phenyl)-3-((2-(carboxymethyl)phenoxy)methyl)benzo[b]thiophene-2-carboxylic acid] | < 1000 nM
NCc1cccc(-c2ccc3ncc(COc4ccccc4CC(=O)O)n3c2)c1 [Compound 65e, 2-(2-((6-(3-(aminomethyl)phenyl)imidazo[1,2-a]pyridin-3-yl)methoxy)phenyl)acetic acid] | < 1000 nM
NCc1cccc(-c2cc(-c3cccc(CN)c3)c3occ(COc4ccccc4CC(=O)O)c3c2)c1 [Compound 189c, 2-(2-((5,7-bis(3-(aminomethyl)phenyl)benzofuran-3-yl)methoxy)phenyl)acetic acid] | < 1000 nM
NCc1cccc(-c2ccc3scc(COc4ccccc4CC(=O)O)c3c2)c1 [Compound 101d, 2-(2-((5-(3-(aminomethyl)phenyl)benzo[b]thiophen-3-yl)methoxy)phenyl)acetic acid] | < 1000 nM
COc1cc(-c2cccc(CN)c2)cc2c(COc3c(C)cccc3CC(=O)O)coc12 [Compound 237c, 2-(2-((5-(3-(aminomethyl)phenyl)-7-methoxybenzofuran-3-yl)methoxy)-3-methylphenyl)acetic acid] | < 1000 nM
NCc1cccc(-c2cc(COc3ccccc3CC(=O)O)cc3cc(CCOc4ccccc4CC(=O)O)oc23)c1 [Compound 20j, 2-(2-((7-(3-(aminomethyl)phenyl)-2-(2-(2-(carboxymethyl)phenoxy)ethyl)benzofuran-5-yl)methoxy)phenyl)acetic acid] | < 1000 nM
NCc1cccc(-c2ccc3c(c2)c(COc2ccccc2CC(=O)O)nn3CC2CC2)c1 [Compound 258f, 2-(2-((5-(3-(aminomethyl)phenyl)-1-(cyclopropylmethyl)-1H-indazol-3-yl)methoxy)phenyl)acetic acid] | < 1000 nM
COCCc1oc2ccc(-c3cccc(CN)c3)cc2c1COc1ccccc1CC(=O)O [Compound 175h, 2-(2-((5-(3-(aminomethyl)phenyl)-2-(2-methoxyethyl)benzofuran-3-yl)methoxy)phenyl)acetic acid] | < 1000 nM
CC(C)(C)OC(=O)N1CCN(Cc2cc(-c3cccc(CN)c3)cc3c(COc4ccccc4CC(=O)O)coc23)CC1 [Compound 121f, 2-(2-((5-(3-(aminomethyl)phenyl)-7-((4-(tert-butoxycarbonyl)piperazin-1-yl)methyl)benzofuran-3-yl)methoxy)phenyl)acetic acid] | < 1000 nM
NCc1cccc(-c2ccc3c(c2)c(COc2ccccc2CC(=O)O)nn3-c2ccccc2)c1 [Compound 144h, 2-(2-((5-(3-(aminomethyl)phenyl)-1-phenyl-1H-indazol-3-yl)methoxy)phenyl)acetic acid] | < 1000 nM
Cc1cc2c(o1)c(-c1cccc(CN)c1)cc1c(COc3ccccc3CC(=O)O)c(C)oc12 [Compound 272n, 2-(2-((5-(3-(aminomethyl)phenyl)-2,7-dimethylbenzo[1,2-b:3,4-b′]difuran-3-yl)methoxy)phenyl)acetic acid] | < 1000 nM
NCc1cccc(-c2cc(CNCC3CC3)cc3cc(COc4ccccc4CC(=O)O)oc23)c1 [Compound 11d, 2-(2-((7-(3-(aminomethyl)phenyl)-5-(((cyclopropylmethyl)amino)methyl)benzofuran-2-yl)methoxy)phenyl)acetic acid] | < 1000 nM
COCCNc1cc(-c2cccc(CN)c2)cc2c(COc3ccccc3CC(=O)O)coc12 [Compound 296d, 2-(2-((5-(3-(aminomethyl)phenyl)-7-((2-methoxyethyl)amino)benzofuran-3-yl)methoxy)phenyl)acetic acid] | < 1000 nM
COc1ccc(CC(=O)O)c(OCc2c(C(C)C)oc3c(NCC4CC4)cc(-c4cccc(CN)c4)cc23)c1 [Compound 295h, 2-(2-((5-(3-(aminomethyl)phenyl)-7-((cyclopropylmethyl)amino)-2-isopropylbenzofuran-3-yl)methoxy)-4-methoxyphenyl)acetic acid] | < 1000 nM
